Source: patent US20250197394A1, “ANTIBACTERIALS BASED ON MONOCYCLIC FRAGMENTS COUPLED TO AMINOPIPERIDINE NAPHTHYRIDINE SCAFFOLD” (UNIVERZA V LJUBLJANI, priority 2019, published 2025)
Converted amounts (≈) assume the structure as drawn.

Assays:
[1] = molecular target: T1, Escherichia coli DNA gyrase (Escherichia coli, UniProt P0AES4+P0AES6); assay: Gyrase Supercoiling High Throughput Plate assay (E. coli); type: biochemical; conditions: mean of two to four independent measurements
T1 construct: purchased Inspiralis (Norwich, UK)

[2] = tested on: methicillin-resistant Staphylococcus schleiferi subspecies coagulans; assay: MIC broth microdilution, MRSS; type: cell-based; conditions: 20 hours of incubation
Protocol: (§1) Minimal inhibitory concentrations were determined by the broth microdilution method in 96-wells plate format following the Clinical and Laboratory Standards Institute (CLSI) guidelines given in “Methods for Dilution Antimicrobial Susceptibility Tests for Bacteria That Grow Aerobically, Approved Standard, 10th Edition, CLSI document M07-A10, Wayne, PA: Clinical and Laboratory Standards Institute, USA, 2015” and European Committee on Antimicrobial Susceptibility Testing (EUCAST) recommendations given in “The European Committee on Antimicrobial Susceptibility Testing, Breakpoint tables for interpretation of MICs and zone diameters, Version 5.0, 2015”. All exemplified compounds were tested on several Gram-positive (S. aureus, methicillin-resistant Staphylococcus aureus (MRSA), methicillin-resistant
(§2) Staphylococcus schleiferi subspecies coagulans, methicillin-resistant Staphylococcus pseudintermedius
(§3) (S-48, S-84, S-35, S-52, S-40 and S-51), Streptococcus agalactiae and Enterococcus faecalis) and Gram-negative bacteria (E. coli, Salmonella Alachua and Pseudomonas aeruginosa).
(§4) The MICs were visually determined as the lowest compound concentration inhibiting bacterial growth after 20 hours of incubation time. […] MIC values are represented in Table 2.

[3] = tested on: methicillin-resistant Staphylococcus pseudintermedius S-84; assay: MIC broth microdilution, MRSP S-84; type: cell-based; conditions: 20 hours of incubation
Protocol: as §1, §2, §3, §4

[4] = tested on: methicillin-resistant Staphylococcus pseudintermedius S-48; assay: MIC broth microdilution, MRSP S-48; type: cell-based; conditions: 20 hours of incubation
Protocol: as §1, §2, §3, §4

[5] = tested on: methicillin-resistant Staphylococcus pseudintermedius S-35; assay: MIC broth microdilution, MRSP S-35; type: cell-based; conditions: 20 hours of incubation
Protocol: as §1, §2, §3, §4

[6] = tested on: methicillin-resistant Staphylococcus pseudintermedius S-52; assay: MIC broth microdilution, MRSP S-52; type: cell-based; conditions: 20 hours of incubation
Protocol: as §1, §2, §3, §4

[7] = tested on: methicillin-resistant Staphylococcus pseudintermedius S-40; assay: MIC broth microdilution, MRSP S-40; type: cell-based; conditions: 20 hours of incubation
Protocol: as §1, §2, §3, §4

[8] = tested on: methicillin-resistant Staphylococcus pseudintermedius S-51; assay: MIC broth microdilution, MRSP S-51; type: cell-based; conditions: 20 hours of incubation
Protocol: as §1, §2, §3, §4

E. faecalis DRK 057 = assay: MIC broth microdilution, E. faecalis; type: cell-based; conditions: Enterococcus faecalis, DRK057, 20 hours of incubation
Protocol: as §1, §2, §3, §4

P. aeruginosa RDK 184 = assay: MIC broth microdilution, P. aeruginosa; type: cell-based; conditions: Pseudomonas aeruginosa, RDK184, 20 hours of incubation
Protocol: as §1, §2, §3, §4

C. jejuni RDK-135 = assay: MIC broth microdilution, C. jejuni; type: cell-based; conditions: Campylobacter jejuni, RDK135, 20 hours of incubation
Protocol: as §1, §4

HUVEC (ATCC) cell line = assay: Cytotoxicity, metabolic cell activity (CellTiter 96 AQueous One), HUVEC; type: cell-based; conditions: two independent experiments; for mean percentage of metabolic activity of treated cells, HUVEC 1 μM: compound 1 μM; for mean percentage of metabolic activity of treated cells, HUVEC 50 μM: compound 50 μM
Protocol: (§5) Cytotoxicity was assessed in assay measuring metabolic cell activity performed on HepG2 (ATCC) and HUVEC (ATCC) cell lines according to the protocol of CellTiter 96® AQueous One Solution Cell Proliferation Assay 2018, Promega, USA, 2001. The method involved absorbance measurements after the treatment of cells with compounds at concentrations 1 μM and 50 μM.
(§6) The results are given as the mean percentage of metabolic activity of treated cells from two independent experiments and are represented in Table 3.

HepG2 (ATCC) cell line = assay: Cytotoxicity, metabolic cell activity (CellTiter 96 AQueous One), HepG2; type: cell-based; conditions: two independent experiments; for mean percentage of metabolic activity of treated cells, HepG2 1 μM: HepG2, compound 1 μM; for mean percentage of metabolic activity of treated cells, HepG2 50 μM: HepG2, compound 50 μM
Protocol: as §5, §6

[9] = molecular target: Staphylococcus aureus DNA gyrase (Staphylococcus aureus, UniProt P0A0K8+P20831); assay: biochemical
[10] = tested on: methicillin-resistant Staphylococcus aureus (MRSA); assay: MIC broth microdilution, MRSA; type: cell-based; conditions: 20 hours of incubation
Protocol: as §1, §2, §3, §4

Staphylococcus aureus DNA gyrase, sequence (P20831 whole entry): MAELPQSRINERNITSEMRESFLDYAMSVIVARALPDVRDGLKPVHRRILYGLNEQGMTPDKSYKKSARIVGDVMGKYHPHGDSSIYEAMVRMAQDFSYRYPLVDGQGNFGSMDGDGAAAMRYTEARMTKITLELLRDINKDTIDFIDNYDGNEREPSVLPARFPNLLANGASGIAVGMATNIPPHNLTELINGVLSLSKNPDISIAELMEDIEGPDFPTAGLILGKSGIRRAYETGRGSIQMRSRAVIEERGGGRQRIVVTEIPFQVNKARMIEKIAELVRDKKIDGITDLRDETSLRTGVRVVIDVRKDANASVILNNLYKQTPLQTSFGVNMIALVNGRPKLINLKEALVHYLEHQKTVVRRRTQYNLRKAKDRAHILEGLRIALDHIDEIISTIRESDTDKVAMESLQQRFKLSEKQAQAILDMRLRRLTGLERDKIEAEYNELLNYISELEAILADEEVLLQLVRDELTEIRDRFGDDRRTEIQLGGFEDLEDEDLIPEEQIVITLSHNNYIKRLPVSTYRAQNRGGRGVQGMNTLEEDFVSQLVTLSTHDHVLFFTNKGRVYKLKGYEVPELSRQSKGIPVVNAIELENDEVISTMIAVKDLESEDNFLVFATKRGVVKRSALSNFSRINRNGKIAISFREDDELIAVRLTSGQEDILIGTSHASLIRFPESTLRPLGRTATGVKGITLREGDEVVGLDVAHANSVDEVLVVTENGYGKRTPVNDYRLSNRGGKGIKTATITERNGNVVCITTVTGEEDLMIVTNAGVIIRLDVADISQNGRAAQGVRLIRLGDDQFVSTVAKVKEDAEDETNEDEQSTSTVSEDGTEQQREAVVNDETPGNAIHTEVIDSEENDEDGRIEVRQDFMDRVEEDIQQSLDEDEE
Staphylococcus aureus DNA gyrase, sequence (P0A0K8 whole entry): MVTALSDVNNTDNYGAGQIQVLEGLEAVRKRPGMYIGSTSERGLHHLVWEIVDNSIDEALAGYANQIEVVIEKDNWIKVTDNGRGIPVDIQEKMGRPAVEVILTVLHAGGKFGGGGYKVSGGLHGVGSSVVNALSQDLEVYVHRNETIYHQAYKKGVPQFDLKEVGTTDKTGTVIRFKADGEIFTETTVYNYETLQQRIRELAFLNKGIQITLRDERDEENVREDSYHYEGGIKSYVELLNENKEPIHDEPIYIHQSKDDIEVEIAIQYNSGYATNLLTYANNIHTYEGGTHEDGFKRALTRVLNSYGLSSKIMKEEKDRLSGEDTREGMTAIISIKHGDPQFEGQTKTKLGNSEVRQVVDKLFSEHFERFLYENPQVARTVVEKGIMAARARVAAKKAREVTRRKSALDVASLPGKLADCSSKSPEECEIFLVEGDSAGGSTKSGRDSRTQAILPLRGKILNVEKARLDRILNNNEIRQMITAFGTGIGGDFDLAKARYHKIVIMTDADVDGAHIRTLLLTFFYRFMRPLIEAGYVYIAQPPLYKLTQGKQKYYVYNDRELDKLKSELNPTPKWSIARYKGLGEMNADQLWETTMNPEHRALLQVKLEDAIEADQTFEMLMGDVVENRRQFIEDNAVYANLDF
T1 sequence (P0AES4 whole entry, one chain of several): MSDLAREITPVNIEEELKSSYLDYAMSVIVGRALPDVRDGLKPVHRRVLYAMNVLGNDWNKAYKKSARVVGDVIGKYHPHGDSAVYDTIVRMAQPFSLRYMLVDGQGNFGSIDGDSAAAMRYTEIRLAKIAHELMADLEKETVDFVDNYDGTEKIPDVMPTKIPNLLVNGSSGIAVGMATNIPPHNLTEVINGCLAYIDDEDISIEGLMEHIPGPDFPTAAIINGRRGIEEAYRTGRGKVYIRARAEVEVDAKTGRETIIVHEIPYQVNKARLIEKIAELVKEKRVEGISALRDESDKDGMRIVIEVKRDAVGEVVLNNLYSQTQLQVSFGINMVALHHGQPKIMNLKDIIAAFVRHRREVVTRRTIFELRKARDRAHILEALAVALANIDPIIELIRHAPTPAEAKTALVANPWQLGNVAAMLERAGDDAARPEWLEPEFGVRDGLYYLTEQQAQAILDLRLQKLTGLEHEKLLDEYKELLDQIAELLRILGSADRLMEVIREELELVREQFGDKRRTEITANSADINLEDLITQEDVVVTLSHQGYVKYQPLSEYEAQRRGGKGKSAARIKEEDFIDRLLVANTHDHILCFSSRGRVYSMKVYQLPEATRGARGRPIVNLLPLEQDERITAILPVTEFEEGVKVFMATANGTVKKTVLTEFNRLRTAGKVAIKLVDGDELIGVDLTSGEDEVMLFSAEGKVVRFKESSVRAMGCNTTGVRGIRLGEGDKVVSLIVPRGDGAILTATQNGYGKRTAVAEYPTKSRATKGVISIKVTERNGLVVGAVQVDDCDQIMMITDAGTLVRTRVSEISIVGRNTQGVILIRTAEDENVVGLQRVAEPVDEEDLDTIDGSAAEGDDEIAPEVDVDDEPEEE

Structure (SMILES)	IC50 [1] [nM]	MIC [2] [µg/mL]	MIC [3] [µg/mL]	MIC [4] [µg/mL]	MIC [5] [µg/mL]	MIC [6] [µg/mL]	MIC [7] [µg/mL]	MIC [8] [µg/mL]	MIC (E. faecalis DRK 057) [µg/mL]	MIC (P. aeruginosa RDK 184) [µg/mL]	MIC (C. jejuni RDK-135) [µg/mL]	mean percentage of metabolic activity of treated cells, HUVEC 1 μM (HUVEC (ATCC) cell line) [%]	mean percentage of metabolic activity of treated cells, HUVEC 50 μM (HUVEC (ATCC) cell line) [%]	mean percentage of metabolic activity of treated cells, HepG2 1 μM (HepG2 (ATCC) cell line) [%]	mean percentage of metabolic activity of treated cells, HepG2 50 μM (HepG2 (ATCC) cell line) [%]	IC50 [9] [nM]	MIC [10] [µg/mL]
COc1ccc2nccc(CCN3CCC(NCc4ccccc4)CC3)c2n1 [Compound C1, N-benzyl-1-(2-(6-methoxy-1,5-naphthyridin-4-yl)ethyl)piperidin-4-amine]	40600	0.25 (≈ 0.664 µM)	4 (≈ 10.6 µM)	4 (≈ 10.6 µM)	4 (≈ 10.6 µM)	16 (≈ 42.5 µM)	4 (≈ 10.6 µM)	4 (≈ 10.6 µM)	16 (≈ 42.5 µM)	> 128	32 (≈ 85 µM)	92.9 ± 16.6	63.4 ± 11.3	107.1 ± 7.2	1.4 ± 0.3	1020	
COc1ccc2nccc(CCN3CCC(NCc4ccc(CO)cc4)CC3)c2n1 [Compound C2, (4-((1-(2-(6-methoxy-1,5-naphthyridin-4-yl)ethyl)piperidin-4-ylamino)methyl)phenyl)methanol]	56600	0.25 (≈ 0.615 µM)	4 (≈ 9.84 µM)	4 (≈ 9.84 µM)	4 (≈ 9.84 µM)	8 (≈ 19.7 µM)	4 (≈ 9.84 µM)	4 (≈ 9.84 µM)	8 (≈ 19.7 µM)	> 128	32 (≈ 78.7 µM)	97.7 ± 9.4	63.1 ± 2.1	100.2 ± 1.5	24.1 ± 0.9	4390	
COc1ccc2nccc(CCN3CCC(NCc4ccc(C(N)=O)cc4)CC3)c2n1 [Compound C3, 4-((1-(2-(6-methoxy-1,5-naphthyridin-4-yl)ethyl)piperidin-4-ylamino)methyl) benzamide]	> 100000	0.25 (≈ 0.596 µM)	4 (≈ 9.53 µM)	4 (≈ 9.53 µM)	4 (≈ 9.53 µM)	8 (≈ 19.1 µM)	4 (≈ 9.53 µM)	4 (≈ 9.53 µM)	128 (≈ 305 µM)	> 128	128 (≈ 305 µM)	105.8 ± 3.5	66.1 ± 3.5	94.0 ± 0.8	48.3 ± 1.0	1820	
COc1ccc2nccc(CCN3CCC(NCc4ccc(F)cc4)CC3)c2n1 [Compound C5, N-(4-fluorobenzyl)-1-(2-(6-methoxy-1,5-naphthyridin-4-yl)ethyl)piperidin-4-amine]	17000	0.125 (≈ 0.317 µM)	2 (≈ 5.07 µM)	2 (≈ 5.07 µM)	2 (≈ 5.07 µM)	8 (≈ 20.3 µM)	2 (≈ 5.07 µM)	2 (≈ 5.07 µM)	8 (≈ 20.3 µM)	> 128	1 (≈ 2.53 µM)	105.2 ± 15.1	75.6 ± 12.0	98.0 ± 3.9	−1.3 ± 2.2	550	
COc1ccc2nccc(CCN3CCC(NCc4ccc(Br)cc4)CC3)c2n1 [Compound C7, N-(4-bromobenzyl)-1-(2-(6-methoxy-1,5-naphthyridin-4-yl)ethyl)piperidin-4-amine]		≤ 0.0078	0.062 (≈ 0.136 µM)	0.062 (≈ 0.136 µM)	0.062 (≈ 0.136 µM)	0.125 (≈ 0.274 µM)	0.031 (≈ 0.0681 µM)	0.062 (≈ 0.136 µM)	1 (≈ 2.2 µM)	128 (≈ 281 µM)	0.5 (≈ 1.1 µM)	92.0 ± 4.5	−0.5 ± 0.2	84.3 ± 8.9	−0.1 ± 0.3	7	
COc1ccc2nccc(CCN3CCC(NCc4ccc(I)cc4)CC3)c2n1 [Compound C8, N-(4-iodobenzyl)-1-(2-(6-methoxy-1,5-naphthyridin-4-yl)ethyl)piperidin-4-amine]		0.002 (≈ 0.00398 µM)	0.015 (≈ 0.0299 µM)	0.015 (≈ 0.0299 µM)	0.15 (≈ 0.299 µM)	0.062 (≈ 0.123 µM)	≤ 0.0078	0.0078 (≈ 0.0155 µM)	1 (≈ 1.99 µM)	32 (≈ 63.7 µM)	0.015 (≈ 0.0299 µM)	108.0 ± 6.6	−0.3 ± 0.5	102.6 ± 2.3	0.5 ± 0.3	11	0.015 (≈ 0.0299 µM)
COc1ccc2nccc(CCN3CCC(NCc4ccc(OC(F)F)c(OC)c4)CC3)c2n1 [Compound C9, N-(4-(difluoromethoxy)-3-methoxybenzyl)-1-(2-(6-methoxy-1,5-naphthyridin-4-yl)ethyl)piperidin-4-amine]	3900	0.125 (≈ 0.265 µM)	2 (≈ 4.23 µM)	2 (≈ 4.23 µM)	2 (≈ 4.23 µM)	4 (≈ 8.46 µM)	2 (≈ 4.23 µM)	2 (≈ 4.23 µM)	16 (≈ 33.9 µM)	> 128	2 (≈ 4.23 µM)	89.6 ± 3.8	0.2 ± 1.0	89.7 ± 3.8	−0.3 ± 2.1	350	
COc1ccc2nccc(CCN3CCC(NCc4ccc(OC(F)F)c(O)c4)CC3)c2n1 [Compound C10, 2-(difluoromethoxy)-5-((1-(2-(6-methoxy-1,5-naphthyridin-4-yl)ethyl)piperidin-4-ylamino)methyl)phenol]	4410	0.25 (≈ 0.545 µM)	0.25 (≈ 0.545 µM)	0.25 (≈ 0.545 µM)	0.5 (≈ 1.09 µM)	2 (≈ 4.36 µM)	0.25 (≈ 0.545 µM)	0.25 (≈ 0.545 µM)	4 (≈ 8.72 µM)	> 128	0.016 (≈ 0.0349 µM)	96.4 ± 9.1	2.5 ± 0.3	100.5 ± 4.8	−0.4 ± 1.6	330	
